Data from PubChem BioAssay (NCI).
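48-hour exposure; five concentrations; linearly interpolated endpoints. Abbreviation: GI50, concentration required for 50% inhibition of growth. The concentration for full growth arrest is given as TGI.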

Experiments:
Assay in all cases: DTP human tumour cell line panel, 48 h
HCT-116 colon = tested on: HCT-116 colon
MDA-MB-231 breast = tested on: MDA-MB-231 breast
SK-MEL-2 melanoma = tested on: SK-MEL-2 melanoma
TK-10 renal = tested on: TK-10 renal
OVCAR-4 ovarian = tested on: OVCAR-4 ovarian
SF-295 CNS = tested on: SF-295 CNS
SF-268 CNS = tested on: SF-268 CNS
SK-MEL-5 melanoma = tested on: SK-MEL-5 melanoma
COLO 205 colon = tested on: COLO 205 colon
NCI-H226 lung = tested on: NCI-H226 lung
SF-539 CNS = tested on: SF-539 CNS
786-0 renal = tested on: 786-0 renal
CAKI-1 renal = tested on: CAKI-1 renal
MDA-MB-468 breast = tested on: MDA-MB-468 breast
M14 melanoma = tested on: M14 melanoma
A498 renal = tested on: A498 renal
OVCAR-3 ovarian = tested on: OVCAR-3 ovarian
BT-549 breast = tested on: BT-549 breast
SW-620 colon = tested on: SW-620 colon
K-562 leukemia = tested on: K-562 leukemia
UO-31 renal = tested on: UO-31 renal
NCI-H460 lung = tested on: NCI-H460 lung
SN12C renal = tested on: SN12C renal
PC-3 prostate = tested on: PC-3 prostate
IGROV1 ovarian = tested on: IGROV1 ovarian
HS 578T breast = tested on: HS 578T breast
MDA-MB-435 = tested on: MDA-MB-435
SK-MEL-28 melanoma = tested on: SK-MEL-28 melanoma
U251 CNS = tested on: U251 CNS
EKVX NSCLC = tested on: EKVX NSCLC
RPMI-8226 leukemia = tested on: RPMI-8226 leukemia
SR leukemia = tested on: SR leukemia
RXF 393 renal = tested on: RXF 393 renal
HOP-92 NSCLC = tested on: HOP-92 NSCLC
HCT-15 colon = tested on: HCT-15 colon
A549 NSCLC = tested on: A549 NSCLC
CCRF-CEM leukemia = tested on: CCRF-CEM leukemia
OVCAR-5 ovarian = tested on: OVCAR-5 ovarian
MCF7 breast = tested on: MCF7 breast
UACC-62 melanoma = tested on: UACC-62 melanoma
NCI-H23 lung = tested on: NCI-H23 lung
HT29 colon = tested on: HT29 colon
ACHN renal = tested on: ACHN renal
HOP-62 NSCLC = tested on: HOP-62 NSCLC
NCI-H522 lung = tested on: NCI-H522 lung
SK-OV-3 ovarian = tested on: SK-OV-3 ovarian
OVCAR-8 ovarian = tested on: OVCAR-8 ovarian
UACC-257 melanoma = tested on: UACC-257 melanoma
HCC-2998 colon = tested on: HCC-2998 colon
SNB-19 CNS = tested on: SNB-19 CNS
T-47D breast = tested on: T-47D breast
KM12 colon = tested on: KM12 colon
DU-145 prostate = tested on: DU-145 prostate
MALME-3M melanoma = tested on: MALME-3M melanoma

## COc1cc(/C=C/C(=O)c2cnn(-c3cc(=O)[nH]c4ccc(Cl)cc34)c2C)cc(OC)c1OC
HCT-116 colon
  GI50: 3.58 µM
  TGI: 17.5 µM
MDA-MB-231 breast
  GI50: 3.3 µM
  TGI: 14.9 µM
SK-MEL-2 melanoma
  GI50: 2.98 µM
  TGI: 11.8 µM
TK-10 renal
  GI50: 3.26 µM
  TGI: > 100 µM
OVCAR-4 ovarian
  GI50: 3.58 µM
  TGI: > 100 µM
SF-295 CNS
  GI50: 3.16 µM
  TGI: 11.5 µM
SF-268 CNS
  GI50: 3.42 µM
  TGI: > 100 µM
SK-MEL-5 melanoma
  GI50: 3.22 µM
  TGI: 12 µM
COLO 205 colon
  GI50: 3.53 µM
  TGI: 14 µM
NCI-H226 lung
  GI50: 2.89 µM
  TGI: 9.13 µM
SF-539 CNS
  GI50: 2.08 µM
  TGI: 4.62 µM
786-0 renal
  GI50: 4.09 µM
  TGI: 21.1 µM
CAKI-1 renal
  GI50: 4.17 µM
  TGI: 22.5 µM
MDA-MB-468 breast
  GI50: 1.8 µM
  TGI: 4.41 µM
M14 melanoma
  GI50: 3.2 µM
  TGI: 19.8 µM
A498 renal
  GI50: 34.2 µM
  TGI: 87.4 µM
OVCAR-3 ovarian
  GI50: 3.06 µM
  TGI: 9.9 µM
BT-549 breast
  GI50: 2.76 µM
  TGI: 9.98 µM
SW-620 colon
  GI50: 2.97 µM
  TGI: 11.5 µM
K-562 leukemia
  GI50: 2.68 µM
  TGI: > 100 µM
UO-31 renal
  GI50: 3.26 µM
  TGI: 14.5 µM
NCI-H460 lung
  GI50: 1.88 µM
  TGI: 4.32 µM
SN12C renal
  GI50: 2.64 µM
  TGI: 9.24 µM
PC-3 prostate
  GI50: 6.28 µM
  TGI: > 100 µM
IGROV1 ovarian
  GI50: 2.54 µM
  TGI: 7.18 µM
HS 578T breast
  GI50: 3.31 µM
  TGI: > 100 µM
MDA-MB-435
  GI50: 2.6 µM
  TGI: 8.12 µM
SK-MEL-28 melanoma
  GI50: 3.36 µM
  TGI: 13.3 µM
U251 CNS
  GI50: 2.83 µM
  TGI: > 100 µM
EKVX NSCLC
  GI50: 2.96 µM
  TGI: 14.1 µM
RPMI-8226 leukemia
  GI50: 2.42 µM
  TGI: > 100 µM
SR leukemia
  GI50: 2.02 µM
  TGI: > 100 µM
RXF 393 renal
  GI50: 2.08 µM
  TGI: 4.95 µM
HOP-92 NSCLC
  GI50: 7.31 µM
  TGI: 99.8 µM
HCT-15 colon
  GI50: 1.93 µM
  TGI: 5.01 µM
A549 NSCLC
  GI50: 3.09 µM
  TGI: > 100 µM
CCRF-CEM leukemia
  GI50: 2.42 µM
  TGI: > 100 µM
OVCAR-5 ovarian
  GI50: 3.32 µM
  TGI: 13.4 µM
MCF7 breast
  GI50: 2.48 µM
  TGI: 10.2 µM
UACC-62 melanoma
  GI50: 3.36 µM
  TGI: 15 µM
NCI-H23 lung
  GI50: 2.21 µM
  TGI: 5.9 µM
HT29 colon
  GI50: 2.5 µM
  TGI: 6.58 µM
ACHN renal
  GI50: 1.76 µM
  TGI: 3.68 µM
HOP-62 NSCLC
  GI50: 3.57 µM
  TGI: 25.8 µM
NCI-H522 lung
  GI50: 2.66 µM
  TGI: 8.38 µM
SK-OV-3 ovarian
  GI50: 4.68 µM
  TGI: > 100 µM
OVCAR-8 ovarian
  GI50: 2.06 µM
  TGI: 4.95 µM
UACC-257 melanoma
  GI50: 7.19 µM
  TGI: 64.4 µM
HCC-2998 colon
  GI50: 2.78 µM
  TGI: 8.21 µM
SNB-19 CNS
  GI50: 3.36 µM
  TGI: 14.4 µM
T-47D breast
  GI50: 3.08 µM
  TGI: > 100 µM
KM12 colon
  GI50: 3.37 µM
  TGI: 15 µM
DU-145 prostate
  GI50: 3.3 µM
  TGI: > 100 µM
MALME-3M melanoma
  GI50: 5.1 µM
  TGI: 27.2 µM
